# In patent publication US20090055945A1, “Method for Producing Nuclear-Transplanted Egg” (priority 2005, published 2009):
# Experiments:
# [1] = tested on: oocytes after fertilization; details: treatment of oocytes after fertilization; Non-patent Document 3; cited from earlier work
# [2] = tested on: nuclear transfer oocytes (nuclei from cumulus cells in enucleated oocytes); assay: Expanded blastocyst formation of nuclear transfer oocytes (cumulus cell nuclei); format: cell-based, mouse
# Experimental: Production of cloned mice including production of nuclear transfer embryos was carried out according to the method as described in Non-patent Document 5. Briefly, pregnant mare serum gonadotrophin (PMSG) was first administered to 8-weeks-old female B6D2F1 (C57BL/6 XDBA/2) mice (Japan SLC) for superovulation treatment. Human choriogonadotropin (hCG) was administered after 48 hours. Oocytes were collected after 16 hours. Nuclei were removed from the collected unfertilized oocytes in the presence of 5 μg/ml of cytochalasin B using a micromanipulator (enucleation).
# Next, cell membranes of cumulus cells from a B6D2F1 mouse as donor somatic cells suspended in a 1.2% polyvinylpyrrolidone (PVP) solution were destroyed using an injection pipette, and the nuclei were injected into the enucleated oocytes using a micromanipulator (nuclear transfer). A piezo drive apparatus (Prime Tech) was used to generate piezo-pulses for penetration of zona pellucida or cell membranes which is required for injection of nuclei.
# The thus obtained nuclear transfer oocytes were cultured in a CO2 incubator at 37° C. for 30 minutes to 1 hour. The oocytes were then transferred to an oocyte activation solution (Ca^2+-free CZB medium supplemented with 5 mM strontium chloride (SrCl2) and 5 μg/ml of cytochalasin B (Non-patent Document 10)) containing 0.5, 5, 50 or 500 nM trichostatin A (hereinafter referred to as TSA) to artificially activate the oocytes and initiate the development. Activation of oocytes was confirmed 6 hours after the initiation of activation using pronuclei formation as an index. Activated nuclear transfer oocytes were transferred to KSOM medium (Specialty Media) containing TSA at the same concentration, and cultured for further 14 hours (for 20 hours after the initiation of activation) in the medium. For a control, dimethyl sulfoxide (DMSO), which was used for dissolving TSA, was used in place of TSA to produce the same concentration.
# Then, the nuclear transfer embryos at the 2-cell stage were cultured in KSOM medium without TSA until 96 hours after the initiation of activation, and development into expanded blastocysts was observed. The development into expanded blastocyst was confirmed by culturing for 96 hours after the initiation of activation and then observing under a microscope one in which the volume of embryo was increased to result in expansion of the blastocyst and thinning of zona pellucida among blastocysts having blastocoels. 80 or more embryos were examined in each of the experimental groups of the respective concentrations.
# The ratio of the developed blastocysts to the number of nuclear transfer oocytes used (blastocyst formation rate (%)) was determined. The ratio of the developed expanded blastocysts to the number of oocytes that initiated cleavage (i.e., developed into the 2-cell stage) among the reconstructed nuclear transfer oocytes (blastocyst formation rate (%)) was determined.
# Nuclear transfer oocytes were produced by injecting nuclei from cumulus cells into enucleated oocytes according to the method as described in Example 1, cultured in KSOM medium containing TSA at a concentration of 5 nM for various periods of time (for 0, 24, 48 or 72 hour(s) from the initiation of activation), and then cultured in KSOM medium without TSA until 96 hours after the initiation of activation. Then, development into expanded blastocysts was observed and the blastocyst formation rate was determined. […]
# [3] = tested on: oocytes injected with mature sperm (ICSI); assay: Paternal genome DNA methylation, mature sperm injection (ICSI); format: cell-based, mouse; details: 500 nM TSA, 20 hours
# Experimental: The oocytes injected with the nuclear domains of round spermatids obtained by ROSI were cultured for 20 hours in the presence of 20 ng/ml of demecolcine in a medium containing 10 μM 5-azacytidine (5-aza) or 500 nM TSA as an anti-methylation agent. Similarly, injection of mature sperms was carried out (ICSI (intracytoplasmic sperm injection)). Specifically, heads of sperms were separated from the tails by applying pulses to the head-tail junctions by means of a piezo-driven pipette (PrimeTech), and injected into oocytes. The oocytes were not subjected to activation in this case. […]
# For quantitative analysis of pronuclear DNA methylation levels, fluorescence images were subjected to densitometric analysis using the program Image-J from the National Institute of Health (http://rsb.info.nih.gov/ij/). For each pronucleus, the relative intensity of methylation of the paternal genome was calculated as a percentage of the fluorescence intensity of the maternal genome. In Table 3, data with (b) and without (a) anti-methylation agent were statistically analyzed by Scheffe tests for multiple mean comparisons using the statistical program SPSS version 12.0 (SPSS Inc.). […]
compound,measurement,setting,value
"CC(/C=C/C(=O)NO)=C\[C@@H](C)C(=O)c1ccc(N(C)C)cc1 [TSA, trichostatin A]",development rate,[1],reduced
same,blastocyst development rate compared with the case without TSA,"[2]; TSA 5 nM for 24 or 48 hours from initiation of activation, FIG. 4",increased
same,blastocyst development rate among treatment periods,"[2]; TSA 5 nM for 10 hours after initiation of activation, FIG. 5",highest
same,increase in blastocyst development rate,[2]; TSA 5 nM for 24 hours from initiation of activation,about 4 fold
same,development rate compared with the case without TSA,[2]; TSA 5 nM for 72 hours from initiation of activation,reduced
same,blastocyst formation rate compared with the case without TSA,"[2]; TSA 5, 50 or 500 nM, 20 hours after initiation of activation, observed at 96 hours, FIG. 2",increased
same,Ratio of methylation level of paternal genome to maternal genome (%),[3],8.2^b %
